Measurements: patent US9259418B2 (priority 2008, dated 2016)

Assays:
MPTP treated mice [1] = experiment: Locomotion activity by Rota rod in MPTP treated mice; format: in vivo; settings: day 5, MPTP alone
Experimental: Saline-injected mice are used as control (naïve mice). Mice were treated according to the following plan:
FIGS. 3A-B show the locomotion activity as tested by Rota rod latency (FIG. 3A) and Rota rod distance (FIG. 3B) on day 5 of the study (5 drug administrations).

MPTP treated mice [2] = experiment: Striatal dopamine levels in MPTP treated mice (HPLC); format: in vivo; settings: for dose required to restore dopamine levels when administered alone: MPTP challenged mice, data not shown
Experimental: Striatum tissue samples were homogenized in ice in 500 ul homogenization buffer (0.1M perchloric acid, 0.02% EDTA and 1% ETOH) using OMNI Tip homogenizing kit of OMNI International (intermediate speed, 3×10 seconds with 5 seconds intervals). The homogenates were sonicated for 5 minutes then centrifuged at 15,000 RPM at 4° C. for 15 min. The supernatants were transferred into fresh tubes and Dopamine content was analyzed by HPLC.
Saline-injected mice are used as control (naïve mice).

PC12 cells [3] = experiment: In vitro neuroprotection assay, serum-free medium induced apoptosis, MTT test; format: cell-based, rat; settings: serum starved PC12 cells, drugs alone or as DRA + MAO inhibitor combination
Experimental: (§1) For neuroprotection experiment cells were plated (1 or 0.5×10^5 Cells per well) on poly-L-lysine (Sigma) coated 96 wells tissue culture plates. Twenty four hours after plating the medium was exchanged with fresh growth medium with or without the tested drugs in the absence or presence of stressor. Cell cytotoxicity was induced by either serum starvation or Methyl-4phenylpyridium (MPP^+), 250 uM and 125 uM for PC12 and SK cells respectively. Drugs were added in different concentration alone and in combination, 30 minutes prior to the insult for a subsequent 48 or 72 hours. Neuronal cell injury was evaluated by a colorimetric assay for mitochondrial function using the MTT test (Sigma). The MTT test is based on the conversion of MTT to blue formasan crystals by viable cells. 5 mg/ml MIT reagent was added to each well (1:10 final dilution in each well). Cells were incubated for 1 hour at 37° C. and 5% CO2. Excess MIT was removed, and remaining formasan crystals were dissolved in 50 ul DMSO and were quantified in Elisa reader. The wavelength of the measurement of formasan product was 550 nm and the reference wavelength was 620 nm.
(§2) (a) PC12 and SK-N-SH Cells were incubated with 3 different concentrations of MPP+(125, 250, and 500 μM) or in growth medium lacking serum for 48 and 72 hours.
(§3) (b) Various drug combinations at various drug ratios as stated above were tested. The concentrations used were as follows: ropinirole, 400 μM, 200 μM, 100 μM, 50 μM; rasagiline, 400 μM, 200 μM, 100 μM, 50 μM, 10 μM; pramipexole, 400 μM, 200 μM, 100 μM, 50 μM; selegiline, 100, 50 μM, 10 μM, 1. Cell protection was detected by MTT.
(§4) The combinations used to treat serum-free medium induced apoptosis were ropinirole, 200 μM: rasagiline, 50 μM; ropinirole, 100 μM: rasagiline, 10 μM (FIG. 1A); pramipexole, 200 μM selegiline, 50 μM; pramipexole, 100 μM: selegiline, 10 μM (FIG. 1B); ropinirole, 200 μM: selegiline, 50 μM; and ropinirole, 100 μM: selegiline, 10 μM (FIG. 1C). […]

PC12 cells [4] = experiment: In vitro neuroprotection assay, MPP+ induced apoptosis, MTT test; format: cell-based, rat; settings: MPP+ treated PC12 cells, drugs alone or as DRA + MAO inhibitor combination
Experimental: as §1, §2, §3, §4

SMILES | dose required to restore dopamine levels when administered alone (MPTP treated mice [2]) | neuroprotection effect / cell survival (% viable cells) (PC12 cells [3]) | neuroprotection effect / cell survival (% viable cells) (PC12 cells [4]) | also measured
CN1CC=C(c2ccccc2)CC1 [MPTP, N-methyl-4-phenyl-1,2,3,6-tetrahydropyridine] |  |  |  | decrease in locomotion activity (MPTP treated mice [1]): about 30%; depletion in dopamine levels relative to naïve mice (MPTP treated mice [2]; MPTP treatment alone): over 70%
CCCN[C@H]1CCc2nc(N)sc2C1 [pramipexole] | higher than 1 mg/kg |  |  | 
C#CCN[C@@H]1CCc2ccccc21 [rasagiline] | at least 0.5 mg/kg | the effect on neuroprotection was minor | the effect on neuroprotection was minor | increase in dopamine levels (MPTP treated mice [2]; high doses alone: 0.1 mg/kg rasagiline, 1 mg/kg pramipexole): significant but small increase; restoration of dopamine levels (MPTP treated mice [2]; low doses: rasagiline 0.05 mg/kg, pramipexole 0.5 mg/kg, alone or combined): did not cause a significant restoration of dopamine levels
CCCN(CCC)CCc1cccc2c1CC(=O)N2 [ropinirole] |  | the effect on neuroprotection was minor | the effect on neuroprotection was minor | 
C#CCN(C)[C@H](C)Cc1ccccc1 [selegiline] |  | the effect on neuroprotection was minor | the effect on neuroprotection was minor | 
